Target: T1, autotaxin (Homo sapiens, UniProt Q13822)
T1 construct: purchased Cayman 10803
Experiment: Autotaxin inhibitor screening assay (choline release from LPC)
Type: biochemical
Conditions: not given
Procedure: Autotaxin activity was measured by choline release from LPC in presence or absence of compound.
Twenty (20) ng autotaxin (10803, Cayman, MI, USA) was incubated with 100 μM 14:0 LPC (855575P, Avanti, AL, USA) in a final volume of 100 μL buffer containing 50 mM Tris pH 8.0, 0.01% Triton X-100, 50 mM CaCl2, 1 unit/ml choline oxidase, 2 unit/ml HRP, 2 mM homovanilic acid (HVA). The relative amount of released choline was measured by HVA fluorescence in a 96-well plate. Fluorescent intensity was determined at λex/λem=320/450 nm every 60 seconds for 90 minutes with a SpectraMax i3 (Molecular Devices, CA, USA). Data analysis was performed using GraphPad Prism (GraphPad, La Jolla Calif., USA).
Inhibition %=[1−SlopeTA−SlopeBlank)/(Slopevehicle−SlopeBlank)]×100%

Compound | inhibition at 1 µM [%]
CN(C(=O)OCc1cc(Cl)cc(Cl)c1)C1CCc2ccc(C3=CCN(CC(=O)N4CCC(=O)CC4)CC3)cc21 (centres unmarked) [Compound 11] | 50 to 80

Same assay, conditions: inhibition of autotaxin enzyme activity at 1 μM compound; 100 μM 14:0 LPC; read-out: Inhibition

Compound | inhibition at 1 µM [%]
CN(C(=O)OCc1cc(Cl)cc(Cl)c1)C1CCc2ccc(C3=CCN(CC(=O)N4CC(O)C4)CC3)cc21 (centres unmarked) [Compound 8, 3,5-dichlorobenzyl(6-(1-(2-(3-hydroxyazetidin-1-yl)-2-oxoethyl)-1,2,3,6-tetrahydropyridin-4-yl)-2,3-dihydro-1H-inden-1-yl)(methyl)carbamate] | 50 to 80
CN(C(=O)OCc1cc(Cl)cc(Cl)c1)C1CCc2ccc(C3=CCN(C(=O)CN4C(=O)CSC4=S)CC3)cc21 (centres unmarked) [Compound 9, 3,5-dichlorobenzyl methyl(6-(1-(2-(4-oxo-2-thioxothiazolidin-3-yl)acetyl)-1,2,3,6-tetrahydropyridin-4-yl)-2,3-dihydro-1H-inden-1-yl)carbamate] | > 80
CN(C(=O)OCc1cc(Cl)cc(Cl)c1)C1CCc2ccc(C3=CCN(CC(=O)N4CCOCC4)CC3)cc21 (centres unmarked) [Compound 10] | 50 to 80
CN(C(=O)OCc1cc(Cl)cc(Cl)c1)C1CCc2ccc(C3=CCN(CC(=O)N4CC[C@@H](O)C4)CC3)cc21 (some centres unmarked) [Compound 12] | 50 to 80
CN(C(=O)OCc1cc(Cl)cc(Cl)c1)C1CCc2ccc(C3=CCN(CC(=O)N4CCCC4)CC3)cc21 (centres unmarked) [Compound 13] | < 50
CCN(CC)C(=O)CN1CC=C(c2ccc3c(c2)C(N(C)C(=O)OCc2cc(Cl)cc(Cl)c2)CC3)CC1 (centres unmarked) [Compound 14] | < 50
CCOC(=O)N1CCN(C(=O)CN2CC=C(c3ccc4c(c3)C(N(C)C(=O)OCc3cc(Cl)cc(Cl)c3)CC4)CC2)CC1 (centres unmarked) [Compound 15] | < 50
CN(C(=O)OCc1cc(Cl)cc(Cl)c1)C1CCc2ccc(C3=CCN(CC(=O)N4CCS(=O)(=O)CC4)CC3)cc21 (centres unmarked) [Compound 16] | 50 to 80
CN(C(=O)OCc1cc(Cl)cc(Cl)c1)C1CCc2ccc(C3=CCN(CC(=O)N4CCN(S(C)(=O)=O)CC4)CC3)cc21 (centres unmarked) [Compound 17] | 50 to 80
CN(C(=O)OCc1cc(Cl)cc(Cl)c1)C1CCc2ccc(C3=CCN(C(=O)CN4CCOCC4)CC3)cc21 (centres unmarked) [Compound 18] | > 80
CN(C(=O)OCc1cc(Cl)cc(Cl)c1)C1CCc2ccc(C3=CCN(CC(=O)N4CCCC(O)C4)CC3)cc21 (centres unmarked) [Compound 19] | < 50
CN(C(=O)OCc1cc(Cl)cc(Cl)c1)C1CCc2ccc(C3=CCN(CC(=O)NS(C)(=O)=O)CC3)cc21 (centres unmarked) [Compound 20] | 50 to 80
CN(C(=O)OCc1cc(Cl)cc(Cl)c1)C1CCc2ccc(C3=CCN(CC(=O)N(C)S(C)(=O)=O)CC3)cc21 (centres unmarked) [Compound 21] | 50 to 80
CN(C(=O)OCc1cc(Cl)cc(Cl)c1)C1CCc2ccc(C3=CCN(C(=O)CS(C)(=O)=O)CC3)cc21 (centres unmarked) [Compound 22] | > 80
CN(C(=O)OCc1cc(Cl)cc(Cl)c1)C1CCc2ccc(C3=CCN(C(=O)C(=O)N4CCOCC4)CC3)cc21 (centres unmarked) [Compound 23] | 50 to 80
CN(C(=O)OCc1cc(Cl)cc(Cl)c1)C1CCc2ccc(C3=CCN(C(=O)CN4CC(O)C4)CC3)cc21 (centres unmarked) [Compound 24] | < 50
CN(C(=O)OCc1cc(Cl)cc(Cl)c1)C1CCc2ccc(C3=CCN(C(=O)CN4CCN(S(C)(=O)=O)CC4)CC3)cc21 (centres unmarked) [Compound 25] | > 80
CN(C(=O)OCc1cc(Cl)cc(Cl)c1)C1CCc2ccc(C3=CCN(C(=O)CN4C(=O)CCC4=O)CC3)cc21 (centres unmarked) [Compound 26] | < 50
CN(C(=O)OCc1cc(Cl)cc(Cl)c1)C1CCc2ccc(C3=CCN(C(=O)CN4C(=O)C=CC4=O)CC3)cc21 (centres unmarked) [Compound 27] | > 80
CN(C(=O)OCc1cc(Cl)cc(Cl)c1)C1CCc2ccc(C3=CCN(C(=O)CCN4C(=O)CSC4=S)CC3)cc21 (centres unmarked) [Compound 28] | 50 to 80
CN(C(=O)OCc1cc(Cl)cc(Cl)c1)C1CCc2ccc(C3=CCN(C(=O)CNS(C)(=O)=O)CC3)cc21 (centres unmarked) [Compound 29] | > 80
CN(C(=O)OCc1cc(Cl)cc(Cl)c1)C1CCc2ccc(C3=CCN(C(=O)CN(C)S(C)(=O)=O)CC3)cc21 (centres unmarked) [Compound 30] | > 80

Reference: patent publication US20200157088A1, “BENZENE FUSED HETEROCYCLIC COMPOUND AND USE THEREOF” (TAIWANJ PHARMACEUTICALS CO., LTD., priority 2017, published 2020)
